Reference: patent US12018023B2 (NERVIANO MEDICAL SCIENCES S.R.L., priority 2018, dated 2024)

Tests used:
HT-1080 (IDH1^R132C) = test: Cellular 2-HG production assay, HT-1080; assay type: cell-based; conditions: Homo sapiens, HT-1080, 72 h, inhibition of 2HG production, 72 hr incubation, LC-MS/MS; read-out: HT1080 2-HG IC50
Method in brief: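 Cells in E-MEM/10% FCS (G418 500 μg/mL for the transfected U87-MG line) at 500 per well got compound 24 h after seeding and were incubated 72 h at 37 °C. Medium 2-HG was measured by LC-MS/MS with 2-HG-d3 internal standard; IC50 came from sigmoidal fitting versus controls.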

IDH1^R132C = target: T1, IDH1^R132C (Homo sapiens, UniProt O75874, R132C); test: NADPH depletion assay, IDH1 R132C; assay type: biochemical
T1 construct: purchased not specified
T1 sequence (O75874 whole entry R132C): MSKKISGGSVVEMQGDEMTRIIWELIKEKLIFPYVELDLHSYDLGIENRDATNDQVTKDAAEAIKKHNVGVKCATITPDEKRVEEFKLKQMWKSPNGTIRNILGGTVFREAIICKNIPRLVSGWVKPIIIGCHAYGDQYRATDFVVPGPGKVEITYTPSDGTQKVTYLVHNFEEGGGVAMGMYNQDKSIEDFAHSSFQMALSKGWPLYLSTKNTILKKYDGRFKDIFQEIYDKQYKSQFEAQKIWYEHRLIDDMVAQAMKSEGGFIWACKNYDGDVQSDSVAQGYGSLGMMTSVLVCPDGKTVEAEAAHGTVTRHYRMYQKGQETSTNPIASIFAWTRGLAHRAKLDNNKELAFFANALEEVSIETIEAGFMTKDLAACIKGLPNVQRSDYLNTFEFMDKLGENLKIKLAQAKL
Method in brief: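 IDH1 R132C (2 nM) preincubated 15 min at RT with compound in Tris-HCl pH 7.6/MgCl2 buffer, then 60 min RT with NADPH and 0.14 mM alpha-ketoglutarate. Remaining NADPH read by diaphorase/resazurin fluorescence (Ex544/Em590).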

IDH1WT enzyme = target: T2, IDH1WT enzyme (Homo sapiens, UniProt O75874); test: Enzymatic assay for IDH1 wild-type (NADPH forming assay); assay type: biochemical
T2 construct: purchased not specified
T2 sequence (O75874 whole entry): as the sequence (O75874 whole entry R132C) above, with C132R counted along it
Protocol: IDH1WT enzymatic activity converting isocitric acid to alpha-ketoglutarate is measured using a NADPH forming assay. In the assay the forming cofactor is measured in continuous with the addition of a catalytic excess of diaphorase and resazurin, to generate a fluorescent signal in proportion to the amount of NADPH forming.
Compounds were preincubated with the enzyme, then the reaction was started by the addition of NADP^+, isocitrate, diaphorase and a corresponding substrate, resazurin. Diaphorase reduces resazurin to the highly fluorescent resorufin with the concomitant oxidation of NADPH to NADP. Specifically, 0.2 uL of test compound, previously serially diluted 1 to 3, 10 experimental points from 1 mM in DMSO, was added to 0.016 nM IDH1WT enzyme in 10 μL of Assay Buffer (150 mM NaCl, 50 mM Tris-HCl pH 7.6, 10 mM MgCl2, 0.001% Triton X-100, 4 mM β-mercaptoethanol); the mixture is incubated for 15 minutes at room temperature. The reaction is started with the addition of 10 μL of Substrate Mix (400 μM NADP^+, 40 μM iso-citrate, 5 ugr/mL Diaphorase and 7 μM resazurin in Assay Buffer), the mixture is incubated at room temperature and the reaction is reading on a ViewLux as platereader at Ex544/Em590 in continuous.

[1] = target: T3, IDH1^R132H homodimer enzyme (Homo sapiens, UniProt O75874, R132H); test: NADPH depletion assay, IDH1 R132H; assay type: biochemical
T3 construct: purchased not specified
T3 sequence (O75874 whole entry R132H): as the sequence (O75874 whole entry R132C) above, with C132H counted along it
Method in brief: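 IDH1 R132H enzyme (8 nM as diluted) in Tris-HCl pH 7.6 with 10 mM MgCl2, 0.001% Triton X-100 and 4 mM β-mercaptoethanol is preincubated 15 min at RT with compound. Substrate mix (12 uM NADPH, 3.4 mM α-ketoglutarate) is added for 60 min; remaining NAD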

IDH2^R172K = target: T4, IDH2^R172K (Homo sapiens, UniProt P48735, R172K); test: NADPH depletion assay, IDH2 R172K; assay type: biochemical
T4 construct: purchased not specified
T4 sequence (P48735 40-452 R172K): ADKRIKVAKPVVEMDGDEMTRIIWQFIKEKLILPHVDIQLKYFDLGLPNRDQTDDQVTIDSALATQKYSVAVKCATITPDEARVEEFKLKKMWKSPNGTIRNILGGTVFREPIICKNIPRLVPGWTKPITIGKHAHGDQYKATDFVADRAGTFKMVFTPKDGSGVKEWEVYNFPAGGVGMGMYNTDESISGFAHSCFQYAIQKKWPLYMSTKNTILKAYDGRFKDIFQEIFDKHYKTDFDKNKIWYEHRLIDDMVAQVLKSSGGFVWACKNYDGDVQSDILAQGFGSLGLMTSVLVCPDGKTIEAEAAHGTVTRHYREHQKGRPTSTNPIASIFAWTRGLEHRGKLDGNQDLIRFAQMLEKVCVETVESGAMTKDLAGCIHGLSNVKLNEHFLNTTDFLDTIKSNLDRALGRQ
Method in brief: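 IDH2 R172K (16 nM) was preincubated 15 min at RT with compound (1:3 series from 1 mM in DMSO) in Tris pH 7.6/NaCl/MgCl2/Triton/β-mercaptoethanol. The reaction ran 60 min at RT with 0.55 mM alpha-ketoglutarate and NADPH (12 μM in the substrate mix). Remaining NADPH was read with diaphorase/resazurin fluorescence at Ex544/Em590.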

SMILES: C=CC(=O)N1CCN(C(CC2CC2)c2ccc(C3(Nc4ncc5ccc(=O)n(C(C)C)c5n4)CC3)cc2)CC1 (stereo not shown) [cpd 244, 2-[(1-{4-[1-(4-acryloylpiperazin-1-yl)-2-cyclopropylethyl]phenyl}cyclopropyl)amino]-8-(propan-2-yl)pyrido[2,3-d]pyrimidin-7(8H)-one]
- IC50 (HT-1080 (IDH1^R132C)): 1.6 nM
- IC50 (IDH1^R132C): 3 nM
- IC50 (IDH1WT enzyme): 220 nM
- IC50 [1]: 2 nM
- IC50 (IDH2^R172K): 21 nM

SMILES: C=CC(=O)N1CCN(Cc2ccc([C@H](C)Nc3ncc4ccc(=O)n([C@@H](C)C(C)C)c4n3)cc2)CC1 [cpd 161, 2-{(S)-1-[4-(4-Acryloyl-piperazin-1-ylmethyl)-phenyl]-ethylamino}-8-((S)-1,2-dimethyl-propyl)-8H-pyrido[2,3-d]pyrimidin-7-one]
- IC50 (IDH1^R132C): 13 nM
- IC50 (IDH1WT enzyme): 908 nM
- IC50 [1]: 22 nM
- IC50 (IDH2^R172K): 299 nM

SMILES: C=CC(=O)N1CCN(Cc2ccc([C@H](C)Nc3ncc4ccc(=O)n(C(C)C)c4n3)cn2)CC1 [cpd 213, 2-{[(1S)-1-{6-[(4-acryloylpiperazin-1-yl)methyl]pyridin-3-yl}ethyl]amino}-8-(propan-2-yl)pyrido[2,3-d]pyrimidin-7(8H)-one]
- IC50 (IDH1WT enzyme): 4290 nM

SMILES: C=CC(=O)N1CCN(Cc2ccc([C@H](C)Nc3ncc4ccc(=O)n([C@@H](C)C(F)(F)F)c4n3)cc2)CC1 [cpd 169, 2-{[(1S)-1-{4-[(4-acryloylpiperazin-1-yl)methyl]phenyl}ethyl]amino}-8-[(2S)-1,1,1-trifluoropropan-2-yl]pyrido [2,3-d]pyrimidin-7(8H)-one]
- IC50 (IDH1^R132C): 179 nM
- IC50 (IDH1WT enzyme): 2850 nM
- IC50 [1]: 193 nM
- IC50 (IDH2^R172K): 414 nM

SMILES: C=C(C)C(=O)N1CCN(Cc2ccc([C@H](C)Nc3ncc4ccc(=O)n(CC(C)(C)C)c4n3)cc2)CC1 [cpd 144, 8-(2,2-dimethylpropyl)-2-{[(1S)-1-(4-{[4-(2-methylacryloyl)piperazin-1-yl]methyl}phenyl)ethyl]amino} pyrido [2,3-d]pyrimidin-7(8H)-one]
- IC50 (IDH1^R132C): 25 nM
- IC50 (IDH1WT enzyme): 6800 nM
- IC50 [1]: 78 nM

SMILES: C=CC(=O)N1CCN(C(CC)c2ccc(C3(Nc4ncc5ccc(=O)n(C(C)C)c5n4)CC3)cc2)CC1 (stereo not shown) [cpd 247, 2-[(1-{4-[1-(4-acryloylpiperazin-1-yl)propyl]phenyl}cyclopropyl)amino]-8-(propan-2-yl)pyrido[2,3-d]pyrimidin-7(8H)-one]
- IC50 (HT-1080 (IDH1^R132C)): 3 nM
- IC50 (IDH1^R132C): 4 nM
- IC50 (IDH1WT enzyme): 215 nM
- IC50 [1]: 5 nM
- IC50 (IDH2^R172K): 35 nM

SMILES: C=CC(=O)N1CC=C(c2ccc([C@H](C)Nc3ncc4ccc(=O)n([C@@H](C)C(C)C)c4n3)cc2)CC1 [cpd 168, 2-({(1S)-1-[4-(1-acryloyl-1,2,3,6-tetrahydropyridin-4-yl)phenyl]ethyl}amino)-8-[(2S)-3-methylbutan-2-yl]pyrido [2,3-d]pyrimidin-7(8H)-one]
- IC50 (IDH1^R132C): 16 nM
- IC50 (IDH1WT enzyme): 758 nM
- IC50 [1]: 29 nM
- IC50 (IDH2^R172K): 137 nM

SMILES: C=CC(=O)N1CCN([C@@H](CC)c2ccc(C3(Nc4ncc5ccc(=O)n(C(C)C)c5n4)CC3)cc2)CC1 (single isomer, unassigned) [cpd 249]
- IC50 (HT-1080 (IDH1^R132C)): 2.9 nM
- IC50 (IDH1^R132C): 3 nM
- IC50 (IDH1WT enzyme): 215 nM
- IC50 [1]: 5 nM
- IC50 (IDH2^R172K): 33 nM

SMILES: C=CC(=O)N1CCN(Cc2ccc([C@H](C)Nc3ncc4ccc(=O)n(CC)c4n3)cc2)CC1 [cpd 186, 2-{[(1S)-1-{4-[(4-acryloylpiperazin-1-yl)methyl]phenyl}ethyl]amino}-8-ethylpyrido[2,3-d]pyrimidin-7(8H)-one]
- IC50 (IDH1^R132C): 811 nM
- IC50 (IDH1WT enzyme): 5460 nM
- IC50 [1]: 392 nM
- IC50 (IDH2^R172K): 431 nM

SMILES: C=C(C)C(=O)N1CCN(Cc2ccc([C@H](C)Nc3ncc4ccc(=O)n([C@@H](C)C(C)C)c4n3)cc2)CC1 [cpd 162, 8-((S)-1,2-Dimethyl-propyl)-2-((S)-1-{4-[4-(2-methyl-acryloyl)-piperazin-1-ylmethyl]-phenyl}-ethylamino)-8H-pyrido[2,3-d]pyrimidin-7-one]
- IC50 (IDH1^R132C): 30 nM
- IC50 (IDH1WT enzyme): 3900 nM
- IC50 [1]: 84 nM

SMILES: C=CC(=O)N1CCN(C(CC)c2ccc([C@H](C)Nc3ncc4ccc(=O)n(CC)c4n3)cc2)CC1 (stereo partly drawn) [cpd 214, 2-{[(1S)-1-{4-[1-(4-acryloylpiperazin-1-yl)propyl]phenyl}ethyl]amino}-8-ethylpyrido[2,3-d]pyrimidin-7(8H)-one]
- IC50 (HT-1080 (IDH1^R132C)): 2.1 nM
- IC50 (IDH1^R132C): 2 nM
- IC50 (IDH1WT enzyme): 64 nM
- IC50 [1]: 4 nM
- IC50 (IDH2^R172K): 15 nM

SMILES: C=CC(=O)N1CCN([C@H](CC2CC2)c2ccc([C@H](C)Nc3ncc4ccc(=O)n(C(C)C)c4n3)cc2)CC1 [cpd 231, 2-{[(1S)-1-{4-[(1R)-1-(4-acryloylpiperazin-1-yl)-2-cyclopropylethyl]phenyl}ethyl]amino}-8-(propan-2-yl) pyrido [2,3-d]pyrimidin-7(8H)-one]
- IC50 (HT-1080 (IDH1^R132C)): 0.3 nM
- IC50 (IDH1^R132C): 1 nM
- IC50 (IDH1WT enzyme): 122 nM
- IC50 [1]: 1 nM
- IC50 (IDH2^R172K): 14 nM

SMILES: C=CC(=O)N1CCN([C@H](CC)c2ccc(C3(Nc4ncc5ccc(=O)n(C(C)C)c5n4)CC3)cc2)CC1 (single isomer, unassigned) [cpd 248]
- IC50 (HT-1080 (IDH1^R132C)): 3.1 nM
- IC50 (IDH1^R132C): 2 nM
- IC50 (IDH1WT enzyme): 216 nM
- IC50 [1]: 4 nM
- IC50 (IDH2^R172K): 30 nM

SMILES: C=CC(=O)N1CCN(c2ccc([C@H](C)Nc3ncc4ccc(=O)n([C@@H](C)C(C)C)c4n3)cn2)CC1 [cpd 181, 2-({(1S)-1-[6-(4-acryloylpiperazin-1-yl)pyridin-3-yl]ethyl}amino)-8-[(2S)-3-methylbutan-2-yl]pyrido[2,3-d]pyrimidin-7(8H)-one]
- IC50 (IDH1^R132C): 351 nM
- IC50 (IDH1WT enzyme): 2140 nM
- IC50 [1]: 175 nM
- IC50 (IDH2^R172K): 878 nM

SMILES: C=CC(=O)N1CCN(Cc2ccc([C@H](C)Nc3nc(N)c4ccc(=O)n(C(C)C)c4n3)cc2)CC1 [cpd 206, 2-{[(1S)-1-{4-[(4-acryloylpiperazin-1-yl)methyl]phenyl}ethyl]amino}-4-amino-8-(propan-2-yl)pyrido[2,3-d]pyrimidin-7(8H)-one]
- IC50 (HT-1080 (IDH1^R132C)): 10.1 nM
- IC50 (IDH1^R132C): 15 nM
- IC50 (IDH1WT enzyme): 221 nM
- IC50 [1]: 13 nM
- IC50 (IDH2^R172K): 98 nM

SMILES: C=CC(=O)N1CCN([C@H](CC2CC2)c2ccc(C3(Nc4ncc5ccc(=O)n(C(C)C)c5n4)CC3)cc2)CC1 (single isomer, unassigned) [cpd 245]
- IC50 (HT-1080 (IDH1^R132C)): 1 nM
- IC50 (IDH1^R132C): 2 nM
- IC50 (IDH1WT enzyme): 224 nM
- IC50 [1]: 2 nM
- IC50 (IDH2^R172K): 20 nM

SMILES: C=CC(=O)N1CCC(C#N)(c2ccc([C@H](C)Nc3ncc4ccc(=O)n(C(C)C)c4n3)cc2)CC1 [cpd 241, 1-acryloyl-4-{4-[(1S)-1-{[7-oxo-8-(propan-2-yl)-7,8-dihydropyrido[2,3-d]pyrimidin-2-yl]amino}ethyl]phenyl}piperidine-4-carbonitrile]
- IC50 (HT-1080 (IDH1^R132C)): 64.7 nM
- IC50 (IDH1^R132C): 196 nM
- IC50 (IDH1WT enzyme): 117 nM
- IC50 [1]: 272 nM
- IC50 (IDH2^R172K): 146 nM

SMILES: C=CC(=O)N1CCN(Cc2ccc([C@H](C)Nc3ncc4ccc(=O)n(C(C)C)c4n3)cc2F)CC1 [cpd 183, 2-{[(1S)-1-{4-[(4-acryloylpiperazin-1-yl)methyl]-3-fluorophenyl}ethyl]amino}-8-(propan-2-yl)pyrido[2,3-d]pyrimidin-7(8H)-one]
- IC50 (HT-1080 (IDH1^R132C)): 21 nM
- IC50 (IDH1^R132C): 39 nM
- IC50 (IDH1WT enzyme): 899 nM
- IC50 [1]: 52 nM
